The results in this text go back to ChEMBL document CHEMBL1135857, “Exploration of peptidyl hydrazones as water-soluble calpain inhibitors” (Bioorg Med Chem Lett, 2002).

A short description of series [1]: Water solubility was determined at pH 4. The class given is ADME.
In series [2] the target is T1, Calpain-1 catalytic subunit (Sus scrofa, UniProt P35750).
T1 sequence (P35750 whole entry): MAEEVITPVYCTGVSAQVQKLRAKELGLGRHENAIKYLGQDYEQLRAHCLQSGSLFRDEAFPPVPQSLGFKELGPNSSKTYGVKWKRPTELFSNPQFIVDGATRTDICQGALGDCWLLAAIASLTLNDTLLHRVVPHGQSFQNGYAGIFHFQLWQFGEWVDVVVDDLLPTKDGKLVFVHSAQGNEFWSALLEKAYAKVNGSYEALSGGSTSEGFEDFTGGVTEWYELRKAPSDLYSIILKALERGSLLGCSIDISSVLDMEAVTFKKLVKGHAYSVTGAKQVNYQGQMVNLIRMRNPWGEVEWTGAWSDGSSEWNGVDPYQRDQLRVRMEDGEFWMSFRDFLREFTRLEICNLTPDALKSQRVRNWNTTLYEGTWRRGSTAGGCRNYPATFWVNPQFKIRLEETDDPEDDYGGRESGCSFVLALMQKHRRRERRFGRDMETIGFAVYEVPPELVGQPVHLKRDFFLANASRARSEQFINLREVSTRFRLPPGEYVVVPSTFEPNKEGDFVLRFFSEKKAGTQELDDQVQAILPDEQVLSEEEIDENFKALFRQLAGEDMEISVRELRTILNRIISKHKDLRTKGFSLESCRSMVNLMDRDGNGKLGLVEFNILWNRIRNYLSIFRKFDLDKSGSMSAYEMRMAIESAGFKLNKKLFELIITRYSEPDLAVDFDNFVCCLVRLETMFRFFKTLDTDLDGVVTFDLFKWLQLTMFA
Put plainly: Tested for inhibitory activity against porcine erythrocyte Mu-calpain.

The nature of series [3]: Water solubility was determined at pH 7. Type of series: ADME.
Series [4] can be described thus: Water solubility was determined at pH 6. The class given is ADME.
Series [5] can be described thus: Water solubility was determined at pH 5. Type of series: ADME.

Values after ≈ are worked out from the molar mass of the structure shown.

In general, solubility refers to the dissolved amount per volume that the medium holds. A higher solubility goes with a readily soluble substance. One may read the IC50 as the midpoint of a concentration-inhibition curve. Consider `CC(C)C[C@@H](C=O)NC(=O)[C@@H](NS(=O)(=O)c1ccc(F)cc1)C(C)C`, for which the solubility was 102 µg/mL (≈ 274 µM) in series [1], 105 µg/mL (≈ 282 µM) in series [3] and 100 µg/mL (≈ 268 µM) in series [4]. The IC50 in series [2] was 0.035 µM.

As for `CC(C)[C@H](NS(=O)(=O)c1ccc(F)cc1)C(=O)NC/C=N/N1CCOCC1`, the solubility in series [5] was 840 µg/mL (≈ 2100 µM); in series [1], 1260 µg/mL (≈ 3150 µM); in series [3], 667 µg/mL (≈ 1670 µM); in series [4] it was 692 µg/mL (≈ 1730 µM). Also, in series [2], half-maximal inhibition (IC50) required 6.2 µM.

For the molecule `CC(C)C[C@@H](/C=N/NCCO)NC(=O)[C@@H](NS(=O)(=O)c1ccc(F)cc1)C(C)C`, the solubility came to 234 µg/mL (≈ 543 µM) in series [5], 228 µg/mL (≈ 530 µM) in series [1], 293 µg/mL (≈ 681 µM) in series [3] and 226 µg/mL (≈ 525 µM) in series [4]. In series [2], this molecule came in with an IC50 of 0.19 µM.

On to `CC(C)C[C@@H](/C=N/NC(N)=O)NC(=O)[C@@H](NS(=O)(=O)c1ccc(F)cc1)C(C)C`, for which the solubility in series [1] came out at 433 µg/mL (≈ 1010 µM). Also, in series [2], the half-inhibitory concentration (IC50) turned out to be 0.68 µM.

Turning to `CC(C)[C@H](NS(=O)(=O)c1ccc(F)cc1)C(=O)NC/C=N/NC(=O)CN(C)C`, the solubility in series [5], in series [1], in series [3] and in series [4] was over 5000 µg/mL each time. This molecule also gave an IC50 in series [2] of over 10 µM.

With `CC(C)C[C@@H](/C=N/N1CCOCC1)NC(=O)[C@@H](NS(=O)(=O)c1ccc(F)cc1)C(C)C`, the solubility in series [5] worked out at 63.3 µg/mL (≈ 139 µM); in series [1], 67.3 µg/mL (≈ 147 µM); in series [3], 58.2 µg/mL (≈ 127 µM); in series [4], 60.8 µg/mL (≈ 133 µM). The molecule further showed an IC50 in series [2] of 0.79 µM.
